# Data reported in patent US5407683A (Research Corporation Technologies, Inc., priority 1992, dated 1995).
# Key:
# [1] = thermal stability of taxol; type: physicochemical; details: 130° C.
# Protocol: The process steps can in many cases be performed at about room temperature. […] The process steps should be performed to avoid melting or decomposition of the matrix compound, i.e., the process should be performed at temperatures less than about the melting point or decomposition point of the matrix compound, generally about 140° C. or less. […] Thus preferred temperatures for performing the process steps are about 60° C. to about 130° C.
# [2] = precipitation of taxol from oil solution under vacuum; type: physicochemical; details: bath temperatures less than 50° to 60° C.
# [3] = solubilization of taxol in squalane oil; type: physicochemical; details: 4.0 mg taxol in 0.400 ml squalane oil, methanol removed
# Protocol: The methanol was then removed with heating and nitrogen blanket at about 60° C. for 10 minutes.
# leukemia = details: cited from earlier work
# colon = details: cited from earlier work
# breast = details: cited from earlier work
# melanoma = details: cited from earlier work
# sarcomas = details: cited from earlier work
# Lewis lung tumor = details: cited from earlier work
# microtubules = details: in vitro; cited from earlier work
# [4] = cited from earlier work
# [5] = nonemulsified form; cited from earlier work
smiles,measurement,setting,value
CC(=O)O[C@H]1C(=O)[C@@]2(C)[C@H]([C@H](OC(=O)c3ccccc3)[C@]3(O)C[C@H](OC(=O)[C@H](O)[C@@H](NC(=O)c4ccccc4)c4ccccc4)C(C)=C1C3(C)C)[C@]1(OC(C)=O)CO[C@@H]1C[C@@H]2O [Taxol],thermal stability,[1],stable for at least about two hours
same,precipitation from the oil solution,[2],tends to precipitate from the oil solution
same,solubilization of taxol in squalane oil,[3],completely solubilized
same,activity against leukemia,leukemia,active
same,activity against colon tumor system,colon,active
same,activity against breast tumor system,breast,active
same,activity against melanoma,melanoma,active
same,activity against sarcomas,sarcomas,active
same,activity against Lewis lung tumor system,Lewis lung tumor,active
same,"concentrations that stabilize microtubules, thus disrupting normal cell division",microtubules,0.1 to 10.0 µg/mL
same,solubility in vehicle,[4]; ethanol:cremophor EL:isotonic saline (5:5:90),≤ 600 µg/mL
same,solubility in most oils,"[4]; safflower, olive and soybean oil",300 to 600 µg/mL
same,solubility in soybean oil,[4]; soybean oil,300 µg/mL
same,solubility in triacetin,[4]; triacetin,30000 µg/mL
same,degradation in the stomach,[5],degraded in the stomach
